Reference: US8278072B1, “Method for synthesis of sialylated products using reversible sialylation” (Health Research, Inc., priority 2007, dated 2012)

Columns and labels:
Assay type in all cases: biochemical
[1] = target: T1, ST3Gal-II (Rattus norvegicus, UniProt Q11205); assay: Effect of O-glycans with sialyl or sulfo substituents on reverse sialylation from [9-3H] sialyl fetuin; details: 6.0 mM compound, [9-3H] sialyl fetuin donor, 20 mM 5′-CMP, 20 h
T1 construct: purchased Calbiochem
T1 sequence (Q11205 1-350): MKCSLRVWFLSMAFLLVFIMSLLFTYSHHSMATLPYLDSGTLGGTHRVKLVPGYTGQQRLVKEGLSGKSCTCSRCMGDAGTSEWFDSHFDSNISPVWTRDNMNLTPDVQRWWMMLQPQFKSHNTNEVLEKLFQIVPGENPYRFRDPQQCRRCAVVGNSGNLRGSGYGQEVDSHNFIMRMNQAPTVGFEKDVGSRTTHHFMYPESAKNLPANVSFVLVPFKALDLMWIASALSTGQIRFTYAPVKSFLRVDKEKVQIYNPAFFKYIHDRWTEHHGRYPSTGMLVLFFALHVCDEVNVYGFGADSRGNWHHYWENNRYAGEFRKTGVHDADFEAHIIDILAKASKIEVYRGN
Description: FIG. 6. Effect of sialyl or sulfo substituents in O-glycan chain on the reverse sialylation by ST3Gal-II. Incubation mixtures (600 μl) contained [9-^3H] sialyl fetuin (5 mg), 200 mM NaCa Codylate pH 6.0, 20 mM 5′-CMP, […] ST3Gal-II and the following: a. 6.0 mM NeuAcα2,3Galβ1,4GlcNAcβ1,6 (Galβ1,3)GalNAcα-O-Bn, b. 6.0 mM 3-O-SulfoGalβ1,4GlcNAcβ1,6(Galβ1,3)GalNAcα-O-Bn or c. 6.0 mM Galβ1,6GlcNAcβ1,6(3-O-Sulphoβ1,3Gal)GalNAcα-O-Bn along with 50 mU ST3Gal-III. Products were fractionated using Biogel P2 column after 20 h at 37° C. Unused [9-^3H] sialyl fetuin (peak 1) appears prior to [9-^3H]Sialyl product from acceptor (peak 2) and CMP-[9-^3H]NeuAc (peak 3). Product identities were verified using LC-MS as indicated by molecular weights noted in the panels.
For these studies, [9-^3H] sialyl fetuin was prepared by the action of ST3Gal-II on fetuin in the presence of CMP-[9-^3H]NeuAc. Radioactivity incorporation into the O-glycan chain of the glycoprotein was confirmed by treating the labeled molecule with alkaline borohyrdride (1MNaBH4 in 0.1MNaOH at 45° C. for 24 hours) and detecting the released radioactivity. During these studies, sialyl fetuin was incubated with 5′-CMP, one of the above mentioned compounds, and sialyltransferase for 20 hours, and the product formed was eluted using a Biogel P2 column. […] Consequently no radioactivity was associated with the acceptor. […] The use of distinct compounds to differentially alter reverse and forward sialylation function further supports the concept that ST3Gal-II may have more than one catalytic function.

[2] = target: T1, ST3Gal-II; assay: Serial transfer of sialic acid from donor via 5′-CMP to acceptors (scheme-II)
Description: FIG. 3. Serial transfer of sialic acid using scheme-II was followed at increasing concentrations of acceptor D-Fucβ1,3GalNAcα-O-Bn. The donor used was either: i) 0.15 mM [9-^3H]CMP-NeuAc; or, ii) 0.15 mM [9-^3H]NeuAcα2,3Galβ1,3(4-FGlcNAcβ1,6)GalNAcα-O-Bn [9-^3H [2]] in the presence of 2.0 mM 5′-CMP, or iii) [9-^3H]NeuAcα2,3Galβ1,3(6-O-SulfoGlcNAcβ1,6)GalNAcα-O—Al [[9-^3H] [4]] in the presence of 2.0 mM 5′-CMP. In runs where [9-^3H [2]] was donor since both and [2] bind C18 cartridges, control runs were performed in the absence of D-Fucβ1,3GalNAcα-O-Bn to estimate the amount of [9-^3H]CMP-NeuAc formed under the experimental conditions. 80-85% of the radioactivity was transferred to CMP-NeuAc in these runs. The amount of CMP-NeuAc remaining in runs with was then subtracted from CMP-NeuAc radioactivity in the control run to determine the amount of sialylated. To complement this run, studies were also performed with [[9-^3H] […] In these runs, the amount of sialylated was determined by measuring radioactivity retained in the C18-cartridge. a. Equilibrium constant was 5.55 when CMP-[9-^3H]NeuAc was donor. b. ˜10-fold lower acceptor concentration was required for similar extents of reaction when CMP-[9-^3H]NeuAc was donor, compared to core-2 based donors and [4].
We tested the possibility that CMP-NeuAc formed above may be available for transfer to other acceptors using ST3Gal-II (scheme-II, FIG. 3). For this, three radiolabeled donors were prepared using methods described above: two were based on the mucin Core-2 structure ([[9-^3H] [1]] and [9-^3H]NeuAcα2,3Galβ1,3(6-O-SulfoGlcNAcβ1,6)GalNAcα-O—Al [[9-^3H] [4]]) while the third was based on the Globo glycolipid ([9-^3H] [3]). The transfer of [9-^3H]NeuAc from these sialylated donors to various T-hapten (Galβ1,3GalNAcα) and mucin core2-based glycoside acceptors in the presence of 5′-CMP and ST3Gal-II was assessed (Table III). All three […] of ST3Gal-II ([1], [3] and [4]) allowed formation of CMP-[9-^3H]NeuAc, and a diverse array of products.
The transfer of [9-^3H]NeuAc from [[9-^3H][1]] to D-Fucβ1,3GalNAcα-O-Bn in the presence of 5′-CMP and ST3Gal-II increased linearly in the first two hours and it reached saturation at 4 hours (FIG. 12), and thus the data in Table III (4 hours time point) represent equilibrium conditions. […] Further, diverse sialylated products can be formed using the same synthetic sialylated donor.
In order to compare the efficiency of individual reactions of scheme II, independent runs were performed where either 0.15 mM [9-^3H]CMP-NeuAc, 0.15 mM [9-^3H] [2] or 0.15 mM [9-^3H] [4] was the donor, and [5] was the acceptor (FIG. 3). 2 mM 5′-CMP was added in runs with core-2 donors and [4], and thus reverse sialylation of these molecules was feasible. Keq for transfer of sialic acid from CMP-NeuAc to [5] was 5.55 (FIG. 3a). […] (˜6 mM) or [9-^3H[4]] (˜6 mM). Thus, while the two-step mechanism results in lower conversion than CMP-NeuAc alone, the transfer of NeuAc still takes place at an appreciable rate.

[3] = target: T1, ST3Gal-II; assay: Reverse sialylation equilibrium constant (Keq) and 5′-CMP dose dependence; details: for Keq (dimensionless units), reverse sialylation equilibrium constant: acceptor 5′-CMP
Description: FIG. 2. Equilibrium constant. a. Reversible sialyltransferase activity at increasing concentration of 5′-CMP. 0.15 mM of donor [9-^3H]NeuAcα2,3Galβ1,3(4-FGlcNAcβ1,6)GalNAcα-O-Bn [9-^3H[2]] was incubated with varying concentrations of 5′-CMP and 0.15 mU ST3Gal-II under conditions described in FIG. 1 for 2 hours. The consumption of the [9-^3H]NeuAc benzyl glycoside donor was measured by subjecting the incubation mixture to Sep-Pak C18 fractionation, which binds the donor and not CMP-[9-^3H]NeuAc. The reaction proceeded to ½ the maximum extent at 80 μM 5′-CMP. b. Equilibrium constant Keq (=0.35) calculated for data in panel a. c. Varying concentrations of 5′-CMP was sialylated with ST3Gal-II (2.0 mU) using either 0.15 mM (panel c) or 1.5 mM (not shown) sialyl donor [9-^3H]NeuAcα2,3Galβ1,3GalNAcβ1,3Galα-O-Me [9-^3H[3]] for 4 hours. The product CMP-[9-^3H]NeuAc and the unused [9-^3H[3]] were separated and quantitated by Dowex-1-Formate method. d. Equilibrium constant, Keq=98.9. Diamonds denote data from 1.5 mM runs while data from 0.15 mM runs are depicted by squares.
a) Biogel P2 chromatography: A Biogel P2 column (Fine Mesh; 1.0×116.0 cm) was used with 0.1 M pyridine acetate (pH5.4) as the eluent at room temperature. […] Fractions of 1.0 ml were collected. The bound material was then eluted with 0.5M GlcNAc or 0.2M Gal in the same buffer. […] Calculation of equilibrium constant, Keq: Equilibrium constant was calculated for selected reversible bimolecular reactions that are denoted by:
[formula] Here, [9-^3H]D* denotes the radiolabeled donor and D′ is the donor after removal of sialic acid. Similarly, A and [9-^3H]A* denote the acceptor before and after incorporation of NeuAc. In each run, unreacted [9-^3H]D* and product [9-^3H] A* are measured using radioactivity measurements. The equilibrium constant (Keq=kreverse/kforward, dimensionless units) are then determined using the following equation, where terms in square brackets denote concentrations:
[formula] [D0] and [A0] are initial donor and acceptor concentrations. A plot of [D*]/([D0]−[D*]) versus [A*]/([A0]−[A*]) yields Keq from slope data. Keq<1 implies that the forward reaction is favored and the reaction proceeds to the right side to form [9-^3H]A* efficiently. Liquid Chromatography Coupled with Tandem Mass Spectrometry (LC/MS/MS)
Similar results were observed upon increasing concentrations of 5′-CMP when [9-^3H]NeuAcα2,3Galβ1,3(4-FGlcNAcβ1,6) GalNAcα-O-Bn [9-^3H[2]] was donor (FIG. 2a, b). The concentration of 5′-CMP that mediated half-maximal transfer of [9-^3H]NeuAc was 80 μM. The bimolecular equilibrium constant (Keq) for this reaction was 0.35 (dimensionless units, Table I). Indeed, the Keq varied depending on the donor and it was 98.9 when the donor was based on the globo glycolipid, [9-^3H]NeuAcα2,3Galβ1,3GalNAcβ1,3 Gala-O-Me [[9-^3H] [3]] (FIG. 2c, d). Upon comparing and [3], it is apparent that reverse sialylation proceeds more effectively in the case of [2]. To further confirm the above estimates of Keq for core-2 based structures, we also calculated this parameter for our previously published data where [9-^3H]CMP-NeuAc was donor and mucin core-2 tetrasaccharide Galβ1,4GlcNAcβ1,6(Galβ1,3)GalNAcα-O-Bn was acceptor. In this case, Keq measured with respect to the rate of mucin core-2 sialylation was 5.55 (data not shown), which translates to a reverse sialylation Keq of 0.18.

Molecule: CC(=O)N[C@H]1[C@H](OC[C@H]2O[C@H](OCc3ccccc3)[C@H](NC(C)=O)[C@@H](O[C@@H]3O[C@H](CO)[C@H](O)[C@H](O)[C@H]3O)[C@H]2O)O[C@H](CO)[C@@H](O[C@@H]2O[C@H](CO)[C@H](O)[C@H](OS(=O)(=O)O)[C@H]2O)[C@@H]1O [3-O-SulfoGalβ1,4GlcNAcβ1,6(Galβ1,3)GalNAcα-O-Bn]
- Effect on reverse sialylation (CMP-NeuAc formation and product formation) [1]: inhibits formation of the intermediate CMP-NeuAc

Molecule: CC(=O)N[C@H]1[C@H](OC[C@H]2O[C@H](OCc3ccccc3)[C@H](NC(C)=O)[C@@H](O[C@@H]3O[C@H](CO)[C@H](O)[C@H](OS(=O)(=O)O)[C@H]3O)[C@H]2O)O[C@H](CO)[C@@H](O[C@@H]2O[C@H](CO)[C@H](O)[C@H](O)[C@H]2O)[C@@H]1O [Galβ1,4GlcNAcβ1,6(3-O-SulfoGalβ1,3)GalNAcα-O-Bn]
- Effect on reverse sialylation (CMP-NeuAc formation and product formation) [1]: permits both the formation of CMP-NeuAc from 5′-CMP

Molecule: CC(=O)N[C@H]1[C@H](OC[C@H]2O[C@H](OCc3ccccc3)[C@H](NC(C)=O)[C@@H](O[C@@H]3O[C@H](CO)[C@H](O)[C@H](O)[C@H]3O)[C@H]2O)O[C@H](CO)[C@@H](O[C@@H]2O[C@H](CO)[C@H](O)[C@H](O)[C@H]2O)[C@@H]1O [[10], Galβ1,4GlcNAcβ1,6(Galβ1,3)GalNAcα-O-Bn]
- Incorporation of [9-3H]NeuAc from donor [1], percent of the CPM incorporated into [5] ([2]; acceptor 2.5 mM, 150 μM donor [1], 1 mM 5′-CMP, 4 hours): 20.5%
- Incorporation of [9-3H]NeuAc from donor [4], percent of the CPM incorporated into [5] ([2]; acceptor 2.5 mM, 150 μM donor [4], 1 mM 5′-CMP, 4 hours): 8.4%
- Keq measured with respect to the rate of mucin core-2 sialylation ([3]; [9-3H]CMP-NeuAc donor, mucin core-2 tetrasaccharide acceptor, calculated for previously published data): 5.55
- Keq (dimensionless units), reverse sialylation equilibrium constant ([3]; translated from Keq 5.55 of mucin core-2 sialylation, previously published data): 0.18

Molecule: NeuAcα2,3Galβ1,4GlcNAcβ1,6(Galβ1,3)GalNAcα-O-Bn
- Effect on reverse sialylation (CMP-NeuAc formation and product formation) [1]: prevents product formation without inhibiting CMP-NeuAc formation

Molecule: [9-^3H]NeuAcα2,3Galβ1,3(4-FGlcNAcβ1,6)GalNAcα-O-Bn [[2]]
- amount of acceptor [5] required for comparable transfer ([2]; 0.15 mM donor, 2 mM 5′-CMP with core-2 donors): ~6 mM
- radioactivity transferred to CMP-NeuAc ([2]; control runs without acceptor [5], 2.0 mM 5′-CMP): 80-85%
- Keq (dimensionless units), reverse sialylation equilibrium constant ([3]; sialylated donor): 0.35
